From the NIST ThermoML archive (doi:10.1021/je800110r)
± gives the expanded uncertainty stated by the source.

Settings: 293.15 K, Liquid, Vibrating tube method

CCCCCCCCCC [decane]
Settings	mass density [kg/m3]
375 kPa	730.1 ± 2
394 kPa	730.1 ± 2
411 kPa	730.1 ± 2
427 kPa	730.1 ± 2
448 kPa	730.1 ± 2
469 kPa	730.1 ± 2
487 kPa	730.1 ± 2
510 kPa	730.2 ± 2
528 kPa	730.3 ± 2
551 kPa	730.3 ± 2
571 kPa	730.3 ± 2
605 kPa	730.4 ± 2
692 kPa	730.3 ± 2
760 kPa	730.4 ± 2
843 kPa	730.5 ± 2
898 kPa	730.6 ± 2
949 kPa	730.5 ± 2
998 kPa	730.6 ± 2
1057 kPa	730.6 ± 2
1102 kPa	730.7 ± 2
1141 kPa	730.7 ± 2
1165 kPa	730.8 ± 2
1196 kPa	730.7 ± 2
1214 kPa	730.7 ± 2
1243 kPa	730.8 ± 2
1266 kPa	730.8 ± 2
1302 kPa	730.9 ± 2
1332 kPa	730.8 ± 2
1362 kPa	730.9 ± 2
1397 kPa	730.9 ± 2
1430 kPa	730.9 ± 2
1459 kPa	730.9 ± 2
1493 kPa	731 ± 2
1535 kPa	731.1 ± 2
1567 kPa	731.1 ± 2
1623 kPa	731 ± 2
1669 kPa	731.1 ± 2
1712 kPa	731.2 ± 2
1762 kPa	731.3 ± 2
1802 kPa	731.2 ± 2
1843 kPa	731.3 ± 2
1915 kPa	731.4 ± 2
1974 kPa	731.3 ± 2
2021 kPa	731.5 ± 2
2094 kPa	731.4 ± 2
2187 kPa	731.5 ± 2
2240 kPa	731.6 ± 2
2295 kPa	731.6 ± 2
2363 kPa	731.7 ± 2
2423 kPa	731.7 ± 2
2496 kPa	731.7 ± 2
2561 kPa	731.9 ± 2
2629 kPa	731.9 ± 2
2700 kPa	731.8 ± 2
2720 kPa	732.1 ± 2
2731 kPa	732 ± 2
2742 kPa	732 ± 2
2755 kPa	732 ± 2
2770 kPa	732 ± 2
2785 kPa	731.9 ± 2
2795 kPa	732 ± 2
2813 kPa	732 ± 2
2824 kPa	732 ± 2
2834 kPa	732 ± 2
2851 kPa	732.1 ± 2
2884 kPa	732 ± 2
2939 kPa	732.1 ± 2
3009 kPa	732.1 ± 2
3026 kPa	732.2 ± 2
3040 kPa	732.2 ± 2
3052 kPa	732.1 ± 2
3064 kPa	732.2 ± 2
3077 kPa	732.2 ± 2
3094 kPa	732.3 ± 2
3109 kPa	732.1 ± 2
3122 kPa	732.3 ± 2
3136 kPa	732.1 ± 2
3147 kPa	732.3 ± 2
3155 kPa	732.2 ± 2
3188 kPa	732.2 ± 2
3283 kPa	732.4 ± 2
3344 kPa	732.4 ± 2
3442 kPa	732.5 ± 2
3479 kPa	732.4 ± 2
3494 kPa	732.5 ± 2
3506 kPa	732.5 ± 2
3529 kPa	732.6 ± 2
3551 kPa	732.6 ± 2
3564 kPa	732.6 ± 2
3584 kPa	732.6 ± 2
3599 kPa	732.7 ± 2
3619 kPa	732.7 ± 2
3635 kPa	732.7 ± 2
3653 kPa	732.6 ± 2
3672 kPa	732.8 ± 2
3690 kPa	732.6 ± 2
3705 kPa	732.8 ± 2
3719 kPa	732.7 ± 2
3735 kPa	732.8 ± 2
3748 kPa	732.6 ± 2
3764 kPa	732.8 ± 2
3781 kPa	732.7 ± 2
3793 kPa	732.9 ± 2
3810 kPa	732.7 ± 2
3829 kPa	732.9 ± 2
3842 kPa	732.8 ± 2
3861 kPa	732.8 ± 2
3881 kPa	732.8 ± 2
3894 kPa	732.8 ± 2
3916 kPa	732.9 ± 2
3929 kPa	732.9 ± 2
3952 kPa	732.9 ± 2
3964 kPa	732.9 ± 2
3984 kPa	733 ± 2
4001 kPa	733 ± 2
4012 kPa	733 ± 2
4029 kPa	733 ± 2
4046 kPa	733 ± 2
4060 kPa	733 ± 2
4084 kPa	733 ± 2
4099 kPa	733 ± 2
4117 kPa	733 ± 2
4130 kPa	733.1 ± 2
4150 kPa	733.2 ± 2
4166 kPa	733 ± 2
4190 kPa	733 ± 2
4211 kPa	733 ± 2
4226 kPa	733.1 ± 2
4247 kPa	733.1 ± 2
4269 kPa	733.3 ± 2
4281 kPa	733.1 ± 2
4302 kPa	733.2 ± 2
4323 kPa	733.1 ± 2
4338 kPa	733.2 ± 2
4361 kPa	733.3 ± 2
4382 kPa	733.2 ± 2
